This data set can be described thus: Plasma metabolic stability assay. In kind it is in vitro ADME. The following applies: mouse plasma, 37°C, 120 min incubation. How it is done: 495 µL of plasma was placed in a 96-well plate and pre-incubated at 37°C for 5 min.

The results in this text go back to article PMC10938783, “A novel pan-PI3K inhibitor KTC1101 synergizes with anti-PD-1 therapy by targeting tumor suppression and immune activation” (Molecular Cancer, 2024).

One may read the half-life as how long it takes for the measured level to halve. Lower therefore signals fast loss. In turn, `CCN(CC)CCOC(=O)c1ccc(N)cc1` [Procaine, reference compound] showed a half-life at 1 µM of 37.8 min.
